{"source": "patent US20210228523A1", "about": "“MODULATORS OF SESTRIN-GATOR2 INTERACTION AND USES THEREOF” (Navitor Pharmaceuticals, Inc., priority 2017, published 2021)", "tested_on": "layer V pyramidal neurons in PFC", "assay": "Dendritic spine density and morphology analysis (two-photon imaging)", "assay_type": "in vivo, rat", "details": "Example H; NV-5138 160 mg/kg oral single dose; 24 hr", "experimental": "Study Design: Sixteen (16) male rats weighing between 175 and 200 g were randomized into 2 study groups (n=8), following a 5-day acclimation period. On study day 0, rats received a single dose of either NV vehicle (Veh, 0.5% methylcellulose/0.1% Tween-80) or NV-5138 (160 mg/kg), by oral gavage. On day 1, 24 hrs after dosing, rats were sacrificed, and brain slices were prepared and subjected to whole cell patch clamp recording of layer V pyramidal neurons in PFC.\nSpine Density Analysis. Labeled neurons within layer V of anterior cingulate (Cg1) and prelimbic mPFC (Cg3) were imaged with a two-photon Ti:sapphire laser scanning system for analysis of spine density and morphology (810 nanometers; Mai Tai, Spectra Physics, Mountain View, Calif.) coupled to direct detection Radiance 2000 BioRad laser scanner (Zeiss Micromaging, Thornwood, N.Y.) mounted on a Olympus BX50WI microscope, using a 60× (0.9 numerical aperture) water-immersion objective. This includes the total number of spines on proximal and distal tufts of layer V neurons, as well as the spine head diameter, and indication of spine maturation. The length of apical tuft branch segments is determined within the 3D matrix of each Z-stack by using Neurolucida 10.2 (MicroBrightField). Spine density and spine head diameter analysis are done with the Autospine module of Neurolucida Explorer (version 10.2) on the raw image stacks (2-5 optical sections, 1 μm apart). Spine density and segmentation (beading) were sampled in three zones: tips of tuft branches as they approach the pial membrane, intermediate dendrites approximately midway between the pial membrane and bifurcation of apical trunk, and proximal tuft dendrites just distal to the bifurcation. Results were expressed in terms of total dendritic length, spine density, and segmentation density. Results were expressed in terms of spine density per 10 μm."}
{"smiles": "CC(C)(C[C@H](N)C(=O)O)C(F)F", "note": "[NV-5138]", "values": [{"measurement": "mushroom spine subtype density", "result": "specific increase"}, {"measurement": "overall spine density in layer V pyramidal neuron dendrites", "result": "significant increase"}, {"measurement": "thin spine subtype density", "result": "specific increase"}]}
